Experimental data reported in patent US20040170705A1, “Compositions and methods for non-insulin glucose uptake” (priority 2001, published 2004).
Entries after “also recorded” stand apart in the source; their conditions may differ.

Columns and labels:
L6 muscle cells = experiment: glucose uptake in L6 muscle cells (2-NBDG fluorescence); format: cell-based
Experimental: The permeate portion of GMM was tested for glucose uptake in L6 muscle cells. L6 cells were grown as monolayers in Dulbecco's modified Eagle's medium (DMEM) containing 1 mM glutamine, 1 mM pyruvate and 25 mM glucose. The medium was supplemented with 5% fetal calf serum (FCS). Experiments were undertaken in 48-well plates seeded from pre-confluent flasks with 50 000 cells per well. The cells were grown to confluence and the medium was changed to DMEM containing 0.5% FCS and 2.5 mM glucose (L6 Myo Medium) for at least 76 hrs to induce differentiation of L6 cells and formation of L6 myotubes. Myotubes were then incubated with test substances for 30 minutes—Protocol SMM, or in Dulbecco's PBS supplemented with 20 mM Hepes and 2 mM glucose without serum—Serum-free Medium (SFM) Protocol as described by Fryer et al. ((Activation of glucose transport by AMP-activated protein kinase via stimulation of Nitric oxide synthase, Diabetes, 49(12), 1978-85, 2000, Fryer LGD, et al).
Next, 30 uM of 2-NBDG was added for 2 minutes at 22C. Subsequently, cell culture medium was removed and cells were washed twice with cold DPBS. Then, cells were lysed in 0.5% SDS. Fluorescence was measured at 466/542 nm (excitation/emission) using 100 ul of cell lysate in 2 ml of water.
Cells were cultured, and treated in L6 Myo Medium (SSM)—SSM Protocol or in serum-free medium (SFM-DPBS containing 20 mM Hepes, 2 mM glucose)—SFM Protoci as described by Fryer et al. Glucose uptake was measured by adding 30 uM of 2-NBDG for 2′ at 22C. Experiments were performed in duplicates.
L-NMMA has been used in the experiment to verify whether GMM-induced glucose transport in L6 cells is or is not inhibited by NOS inhibitors, thus mimicking AICAR—induced mechanism of increased glucose transport. Fryer's experimental set up was adopted, consisting of pre-treatment of cells with inhibitor for 30 minutes in DPBS and after that with agonists like AICAR or in our case GMM for next 30 minutes at 37C before performing glucose uptake.

skeletal muscle cells = details: cited from earlier work

**Q.** With insulin: insulin used to treat L6 cells as the compound, how does the glucose uptake increase (L6 muscle cells; culture medium supplemented with 0.5% FCS (SSM), by average) read?
**A.** Its glucose uptake increase is 100-120%.

**Q.** What about the glucose uptake increase (L6 muscle cells; serum-free medium (DPBS)) of the same compound?
**A.** The glucose uptake increase was 40-50%.

**Q.** For `NC(=O)c1ncn([C@@H]2O[C@H](COP(=O)(O)O)[C@@H](O)[C@H]2O)c1N` [AICAR, 5′-aminoimidazole 4-carboxamide 1-ribonucleotide], which “effect on glucose uptake by pharmacological activation of AMPK” value (skeletal muscle cells; skeletal muscle) is on record?
**A.** Its value is “increase in glucose uptake”.

**Q.** For `CC(=O)O.CNC(=N)NCCC[C@H](N)C(=O)O` [L-NMMA, NG-methyl-L-arginine, acetate salt], which “effect on permeate/GMM-induced glucose uptake” value (L6 muscle cells; L-NMMA 300 uM pre-treatment 30 minutes in DPBS, acetate salt) is on record?
**A.** The value was “inhibits; also recorded: blocks”.

**Q.** And the “effect on AICA-stimulated glucose uptake” value (L6 muscle cells; pre-treatment with L-NMMA 30 minutes in DPBS, then AICA 30 minutes)?
**A.** The value was “inhibition”.

**Q.** What about the “effect on the increase of glucose transport after activation of AMPK” value (skeletal muscle cells; NOS inhibitors, skeletal muscle cells) of the same compound?
**A.** Its value is “completely blocks”.

**Q.** Which “effect on glucose uptake” value (L6 muscle cells; L6 cells, 30 minutes treatment, uptake 2 minutes at 22C) does the source give for `NC(=O)c1[nH]cnc1N` [AICA] here?
**A.** Its value is “stimulation”.
